# Assays:
# [1] = tested on: Streptococcus agalactiae 27956; conditions: Streptococcus agalactiae 27956, Gram Positive; cited from earlier work
# Escherichia coll 25254 = conditions: Escherichia coll 25254, Gram Negative; cited from earlier work
# Escherichia coll 10231 = conditions: Escherichia coll 10231, Gram Negative; cited from earlier work
# [2] = tested on: Streptococcus faecium 10541; conditions: Streptococcus faecium 10541, Gram Positive; cited from earlier work
# [3] = tested on: Staphylococcus epidermidis 12228; conditions: Staphylococcus epidermidis 12228, Gram Positive; cited from earlier work
# Micrococcus lutena 9341 = conditions: Micrococcus lutena 9341, Gram Positive; cited from earlier work
# [4] = tested on: all Gram positive bacteria listed in Table 1; conditions: extrapolated from virulent Staph result
# Text: (§1) An independent medical researcher in Israel obtained a very virulent strain of Staph from a patient at the Shaarei Tzedek Hospital in Jerusalem. […] This Staph strain was utilized as the Staph source, and the otherwise exact test protocol described above was repeated. […] Only one test swatch was used for the Staph evaluation.
# [5] = tested on: all Gram Negative bacteria listed in Table 1; conditions: same reasoning applied to PA marker
# Text: as §1
# Bacillus subtilis 6633 = conditions: Bacillus subtilis 6633, Gram Positive; cited from earlier work
# [6] = tested on: Streptococcus-pyogenes 7958; conditions: Streptococcus-pyogenes 7958, Gram Positive; cited from earlier work
# [7] = tested on: Staphylococcus aureus 0927; conditions: Staphylococcus aureus 0927, Gram Positive; cited from earlier work
# [8] = tested on: Saccharomyces cerevisiae 2601; conditions: Saccharomyces cerevisiae 2601, Yeast and Mold; cited from earlier work
# [9] = tested on: Pseudomonas aeruginosa 9027; conditions: Pseudomonas aeruginosa 9027, Gram Negative; cited from earlier work
# [10] = tested on: Enterobacter cloacae 13047; conditions: Enterobacter cloacae 13047, Gram Negative; cited from earlier work
# Candida albicans 16404 = conditions: Candida albicans 16404, Yeast and Mold; cited from earlier work
# [11] = tested on: very virulent strain of Staph; assay type: cell-based; conditions: calculated from inhibition zone being inversely proportional to MIC
# Text: as §1
# [12] = tested on: Staphylococcus aureus 27543; conditions: Staphylococcus aureus 27543, Gram Positive; cited from earlier work
smiles,measurement,setting,value
"[Ag+].[Ag+].[Ag+].[Ag+].[O-2].[O-2].[O-2].[O-2] [Ag4O4, tetrasilver tetroxide]",MIC (Minimal Inhibitory Concentration),[1],1.25-5.00 PPM
same,MIC (Minimal Inhibitory Concentration),Escherichia coll 25254,2.50 PPM
same,MIC (Minimal Inhibitory Concentration),Escherichia coll 10231,2.50 PPM
same,MIC (Minimal Inhibitory Concentration),[2],5.00 PPM
same,MIC (Minimal Inhibitory Concentration),[3],0.625 PPM
same,MIC (Minimal Inhibitory Concentration),Micrococcus lutena 9341,1.25-2.50 PPM
same,inhibition of all listed Gram positive bacteria,[4],capable of inhibiting
same,inhibition of all Gram Negative bacteria listed in Table 1,[5],inhibition
same,MIC (Minimal Inhibitory Concentration),Bacillus subtilis 6633,5.00 PPM
same,MIC (Minimal Inhibitory Concentration),[6],2.50 PPM
same,MIC (Minimal Inhibitory Concentration),[7],2.50-5.00 PPM
same,MIC (Minimal Inhibitory Concentration),[8],1.25 PPM
same,MIC (Minimal Inhibitory Concentration),[9],1.25-2.50 PPM
same,MIC (Minimal Inhibitory Concentration),[10],2.50 PPM
same,MIC (Minimal Inhibitory Concentration),Candida albicans 16404,2.50-5.0 PPM
same,MIC for the virulent Staph strain,[11],40.5-61.0 PPM
same,MIC (Minimal Inhibitory Concentration),[12],5.00 PPM

# — patent US6436420B1, “High performance silver (I,III) oxide antimicrobial textile articles” (Marantech Holding, LLC, priority 2000, dated 2002)
